Patent US11827646B2, “Compounds for treating spinal muscular atrophy” (Hoffmann-La Roche Inc., priority 2014, dated 2023)

How the values were obtained:
[1] = test system: full length SMN2 minigene mRNA (HEK293H cells stably transfected with SMN2-A minigene); assay: SMN2 minigene mRNA splicing RT-qPCR assay in cultured cells; assay type: cell-based; details: Homo sapiens, HEK293-H, 24 hours, 7-point concentration curve, 1.5-fold increase relative to vehicle, read-out: EC1.5x minigene (EC1.5x concentration for production of full length SMN2 minigene mRNA)
Text: The term “EC1.5x concentration for production of full length SMN2 minigene mRNA” (or “EC1.5x minigene”) is defined as that concentration of test compound that 1 s effective m increasing the amount of full length SMN2 minigene mRNA to a level 1.5-fold greater relative to that in vehicle-treated cells.
The reverse transcription-quantitative PCR-based (RT-qPCR) assay is used to quantify the level of the full length SMN2 minigene (referred to herein by the term “FL SMN2mini”) mRNA containing SMN2 exon 7 in a HEK293H cell line stably transfected with said minigene and treated with a test compound. Materials used and respective sources are listed below in Table 1.
The SMN2-A minigene construct was prepared as described in International Patent Application WO2009/151546A1 page 145 paragraph [00400] to page 147 paragraph [00412](incl. FIG. 1 and FIG. 3 therein).
HEK293H cells stably transfected with the SMN2-A minigene construct (10,000 cells/well) are seeded in 200 μL of cell culture medium (DMEM plus 10% FBS, with 200 μg/mL hygromycin) in 96-well flat-bottom plates and the plate is immediately swirled to ensure proper dispersal of cells and the formation of an even monolayer of cells. Cells are allowed to attach for 6 hours. Test compounds are serially diluted 3.16-fold in 100% DMSO to generate a 7-point concentration curve. A solution of test compound (1 μL, 200× in DMSO) is added to each cell-containing well and the plate is incubated for 24 hours in a cell culture incubator (37° C., 5% CO2, 100% relative humidity). 2 replicates are prepared for each test compound concentration. The cells are then lysed in the Cells-To-Ct lysis buffer and the lysate is stored at −80° C.
Full length SMN2-A minigene and GAPDH mRNA are quantified using the primers and probes referenced in Table 2. Primer SMN Forward A (SEQ ID NO.1) hybridizes to a nucleotide sequence in exon 7 (nucleotide 22 to nucleotide 40), primer SMN Reverse A (SEQ ID NO.2) hybridizes to a nucleotide sequence in the coding sequence of Firefly luciferase, SMN Probe A (SEQ ID NO.3) hybridizes to a nucleotide sequence in exon 7 (nucleotide 50 to nucleotide 54) and exon 8 (nucleotide 1 to nucleotide 21). The combination of these three oligonucleotides detects only SMN1 or SMN2 minigenes (RT-qPCR) and will not detect endogenous SMN1 or SMN2 genes.
The SMN forward and reverse primers are used at final concentrations of 0.4 μM. The SMN probe is used at a final concentration of 0.15 μM. The GAPDH primers are used at final concentrations of 0.2 μM and the probe at 0.15 μM.
The SMN2-minigene GAPDH mix (15 μL total volume) is prepared by combining 7.5 μL of 2×RT-PCR buffer, 0.4 μL of 25×RT-PCR enzyme mix, 0.75 μL of 20×GAPDH primer-probe mix, 4.0075 μL of water, 2 μL of 10-fold diluted cell lysate, 0.06 μL of 100 µM SMN forward primer, 0.06 μL of 100 μM SMN reverse primer, and 0.225 μL of 100 μM SMN probe.
PCR is carried out at the following temperatures for the indicated time: Step 1: 48° C. (15 min); Step 2: 95° C. (10 min); Step 3: 95° C. (15 sec); Step 4: 60° C. (1 min); then repeat Steps 3 and 4 for a total of 40 cycles.
Each reaction mixture contains both SMN2-A minigene and GAPDH primers/probe sets (multiplex design), allowing simultaneous measurement of the levels of two transcripts.
The increase in the abundance of the FL SMN2mini mRNA relative to that in cells treated with vehicle control is determined from real-time PCR data using a modified ΔΔCt method (as described in Livak and Schmittgen, Methods, 2001, 25:402-8). The amplification efficiency E is calculated from the slope of the amplification curve for FL SMN2mini and GAPDH individually. The abundance of FL SMN2mini and GAPDH mRNA are then calculated as (1+E)^−Ct, where Ct is the threshold value for each amplicon. The abundance of FL SMN2mini mRNA is normalized to GAPDH mRNA abundance. […]

[2] = test system: SMN protein in SMA patient fibroblast cells (GM03813); assay: SMN protein assay in cultured cells (SMN HTRF); assay type: cell-based; details: Homo sapiens, SMA Type 1 patient fibroblasts, 48 hours; for EC (1.5-fold): 7-point concentration curve, 1.5 times SMN protein vs vehicle, read-out: EC1.5x SMN protein (EC1.5x concentration for SMN protein expression); for maximal fold induction: fold increase relative to vehicle control, read-out: max. fold increase of SMN protein
Text: The term “EC1.5x concentration for SMN protein expression” (or “EC1.5x SMN protein”) is defined as that concentration of test compound that is effective in producing 1.5 times the amount of SMN protein in an SMA patient fibroblast cell compared to the amount produced from the vehicle control.
The SMN HTRF (homogeneous time resolved fluorescence) assay is used to quantify the level of SMN protein in SMA patient fibroblast cells treated with test compounds. Materials used and respective sources are listed below in Table 4.
Cells are thawed and cultured in DMEM-10% FBS for 72 hours. Cells are trypsinized, counted and re-suspended to a concentration of 25,000 cells/mL in DMEM-10% FBS. The cell suspensions are plated at 5,000 cells per well in a 96 well microtiter plate and incubated for 3 to […]. Test compounds are serially diluted 3.16-fold in 100% DMSO to generate a 7-point concentration curve. 1 μL of test compound solution is transferred to cell-containing wells and cells are incubated for 48 hours in a cell culture incubator (37° C., 5% CO2, […]). Triplicate samples are set up for each test compound concentration. After 48 hours, the supernatant is removed from the wells and 25 μL of the RIPA lysis buffer, containing protease inhibitors, is added to the wells and incubated with shaking at room temperature for 1 hour. 25 μL of the diluent is added and then 35 μL of the resulting lysate is transferred to a 384-well plate, where each well contains 5 μL of the antibody solution (1:100 dilution of anti-SMN d2 and anti-SMN kryptate in SMN reconstitution buffer). The plate is centrifuged for 1 minute to bring the solution to the bottom of the wells, then incubated overnight at room temperature. Fluorescence for each well of the plate at 665 nm and 620 nm is measured on an EnVision multilabel plate reader (Perkin-Elmer).
The normalized fluorescence signal is calculated for each sample, Blank and vehicle control well by dividing the signal at 665 nm by the signal at 620 nm. Normalizing the signal accounts for possible fluorescence quenching due to the matrix effect of the lysate. The ΔF value (a measurement of SMN protein abundance as a percent value) for each sample well is calculated by subtracting the normalized average fluorescence for the Blank control wells from the normalized fluorescence for each sample well, then dividing this difference by the normalized average fluorescence for the Blank control wells and multiplying the resulting value by 100. The ΔF value for each sample well represents the SMN protein abundance from test compound-treated samples. The ΔF value for each sample well is divided by the ΔF value for the vehicle control wells to calculate the fold increase in SMN protein abundance relative to the vehicle control. Table 5 provides EC1.5x concentrations for SMN protein expression that was obtained from the 7-point concentration data generated according to the above procedure for particular compounds of the present invention.
Table 6 provides the maximum fold increase of SMN protein that was obtained from the 7-point concentration data generated according to the above procedure for particular compounds of the present invention

Compound: Cc1cn2nc(-c3cc(=O)n4cc(N5CCN[C@@H](C)C5)ccc4n3)ccc2n1 [Example 11, 2-(2-methylimidazo[1,2-b]pyridazin-6-yl)-7-[(3S)-3-methylpiperazin-1-yl]pyrido[1,2-a]pyrimidin-4-one]
- EC (1.5-fold) [1]: 0.0014 µM
- EC (1.5-fold) [2]: 0.007 µM
- maximal fold induction [2]: 1.9

Compound: Cc1cn2nc(-c3cc(=O)n4cc(N5CCN[C@H](C)C5)ccc4n3)ccc2n1 [Example 12, 2-(2-methylimidazo[1,2-b]pyridazin-6-yl)-7-[(3R)-3-methylpiperazin-1-yl]pyrido[1,2-a]pyrimidin-4-one]
- EC (1.5-fold) [1]: 0.0012 µM
- EC (1.5-fold) [2]: 0.0075 µM
- maximal fold induction [2]: 1.77

Compound: Cc1cn2nc(-c3cc(=O)n4cc(N5CCCNCC5)ccc4n3)ccc2n1 [Example 13, 7-(1,4-diazepan-1-yl)-2-(2-methylimidazo[1,2-b]pyridazin-6-yl)pyrido[1,2-a]pyrimidin-4-one]
- EC (1.5-fold) [1]: 0.005 µM
- EC (1.5-fold) [2]: 0.003 µM
- maximal fold induction [2]: 1.91

Compound: Cc1cn2nc(-c3cc(=O)n4cc(N5C[C@@H](C)N[C@@H](C)C5)ccc4n3)ccc2n1 [Example 14, 7-[(3R,5S)-3,5-dimethylpiperazin-1-yl]-2-(2-methylimidazo[1,2-b]pyridazin-6-yl)pyrido[1,2-a]pyrimidin-4-one]
- EC (1.5-fold) [1]: 0.0041 µM
- EC (1.5-fold) [2]: 0.0176 µM
- maximal fold induction [2]: 1.86

Compound: Cc1cn2nc(-c3cc(=O)n4cc(N5CCN6CCC[C@H]6C5)ccc4n3)ccc2n1 [Example 15, 7-[(8aS)-3,4,6,7,8,8a-hexahydro-1H-pyrrolo[1,2-a]pyrazin-2-yl]-2-(2-methylimidazo[1,2-b]pyridazin-6-yl)pyrido[1,2-a]pyrimidin-4-one]
- EC (1.5-fold) [1]: 0.004 µM
- EC (1.5-fold) [2]: 0.0212 µM
- maximal fold induction [2]: 1.94

Compound: Cc1cn2nc(-c3cc(=O)n4cc(N5CCN6CCC[C@@]6(C)C5)ccc4n3)ccc2n1 [Example 16, 7-[(8aS)-8a-methyl-1,3,4,6,7,8-hexahydropyrrolo[1,2-a]pyrazin-2-yl]-2-(2-methylimidazo[1,2-b]pyridazin-6-yl)pyrido[1,2-a]pyrimidin-4-one]
- EC (1.5-fold) [1]: 0.0011 µM
- EC (1.5-fold) [2]: 0.003 µM
- maximal fold induction [2]: 1.83

Compound: Cc1cn2nc(-c3cc(=O)n4cc(N5CCN6CCC[C@]6(C)C5)ccc4n3)ccc2n1 [Example 17, 7-[(8aR)-8a-methyl-1,3,4,6,7,8-hexahydropyrrolo[1,2-a]pyrazin-2-yl]-2-(2-methylimidazo[1,2-b]pyridazin-6-yl)pyrido[1,2-a]pyrimidin-4-one]
- EC (1.5-fold) [1]: 0.0064 µM
- EC (1.5-fold) [2]: 0.0202 µM
- maximal fold induction [2]: 1.98

Compound: Cc1cn2nc(-c3cc(=O)n4cc(N5CC[C@@H](N6CCCC6)C5)ccc4n3)cc(C)c2n1 [Example 18, 2-(2,8-dimethylimidazo[1,2-b]pyridazin-6-yl)-7-[(3R)-3-pyrrolidin-1-ylpyrrolidin-1-yl]pyrido[1,2-a]pyrimidin-4-one]
- EC (1.5-fold) [1]: 0.0036 µM
- EC (1.5-fold) [2]: 0.025 µM
- maximal fold induction [2]: 1.75

Compound: Cc1cn2nc(-c3cc(=O)n4cc(N5CCNC6(CC6)C5)ccc4n3)cc(C)c2n1 [Example 20, 7-(4,7-diazaspiro[2.5]octan-7-yl)-2-(2,8-dimethylimidazo[1,2-b]pyridazin-6-yl)pyrido[1,2-a]pyrimidin-4-one]
- EC (1.5-fold) [1]: 0.0043 µM
- EC (1.5-fold) [2]: 0.037 µM
- maximal fold induction [2]: 1.72

Compound: Cc1cn2nc(-c3cc(=O)n4cc(N5CC[C@@H](N6CCCC6)C5)ccc4n3)ccc2n1 [Example 21, 2-(2-methylimidazo[1,2-b]pyridazin-6-yl)-7-[(3R)-3-pyrrolidin-1-ylpyrrolidin-1-yl]pyrido[1,2-a]pyrimidin-4-one]
- EC (1.5-fold) [1]: 0.0096 µM
- EC (1.5-fold) [2]: 0.0687 µM
- maximal fold induction [2]: 1.54

Compound: Cc1cn2nc(-c3cc(=O)n4cc(N5CCNC(C)(C)C5)ccc4n3)cc(C)c2n1 [Example 22, 2-(2,8-dimethylimidazo[1,2-b]pyridazin-6-yl)-7-(3,3-dimethylpiperazin-1-yl)pyrido[1,2-a]pyrimidin-4-one]
- EC (1.5-fold) [1]: 0.0009 µM
- EC (1.5-fold) [2]: 0.0138 µM
- maximal fold induction [2]: 1.69

Compound: Cc1cn2nc(-c3cc(=O)n4cc(N5CCNC(C)(C)C5)ccc4n3)ccc2n1 [Example 23, 7-(3,3-dimethylpiperazin-1-yl)-2-(2-methylimidazo[1,2-b]pyridazin-6-yl)pyrido[1,2-a]pyrimidin-4-one]
- EC (1.5-fold) [1]: 0.0034 µM
- EC (1.5-fold) [2]: 0.0239 µM
- maximal fold induction [2]: 1.63

Compound: Cc1cn2nc(-c3cc(=O)n4cc(N5CCN[C@@H](C)C5)cc(C)c4n3)cc(C)c2n1 [Example 24, 2-(2,8-dimethylimidazo[1,2-b]pyridazin-6-yl)-9-methyl-7-[(3S)-3-methylpiperazin-1-yl]pyrido[1,2-a]pyrimidin-4-one]
- EC (1.5-fold) [1]: 0.0004 µM
- EC (1.5-fold) [2]: 0.0047 µM
- maximal fold induction [2]: 1.77

Compound: Cc1cn2nc(-c3cc(=O)n4cc(N5CCN[C@H](C)C5)cc(C)c4n3)cc(C)c2n1 [Example 25, 2-(2,8-dimethylimidazo[1,2-b]pyridazin-6-yl)-9-methyl-7-[(3R)-3-methylpiperazin-1-yl]pyrido[1,2-a]pyrimidin-4-one]
- EC (1.5-fold) [1]: 0.0005 µM
- EC (1.5-fold) [2]: 0.0119 µM
- maximal fold induction [2]: 1.79
